According to ChEMBL document CHEMBL1201862, “PubChem BioAssay data set” (2004):
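In this assay, cells in 96-well plates receive the compound at five concentrations for 48 hours. Endpoints are linearly interpolated between the surrounding concentrations. GI50 is the concentration that inhibits growth by half.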 Activity calls are given as the source filed them. Rule as the data show it: active = GI50 up to about 1.1 µM and inactive = higher. Where a SMILES comes first, the peptide text is derived from it. [ ]: non-standard residue; d: D form. The star is where a group is joined. Phe(4-NO2) = N[CH](Cc1ccc([N+](=O)[O-])cc1)C(=O)O; Boc = CC(C)(C)OC(=O)*; OtBu = CC(C)(C)O*

How the values were obtained:
Assay in all cases: NCI anticancer screen, dose series, 48 h
786-0 = tested on: 786-0
A549 = tested on: A549
HCC 2998 = tested on: HCC 2998
HCT-15 = tested on: HCT-15
HL-60 = tested on: HL-60
HOP-62 = tested on: HOP-62
HOP-92 = tested on: HOP-92
IGROV-1 = tested on: IGROV-1
KM12 = tested on: KM12
LOX IMVI = tested on: LOX IMVI
M14 = tested on: M14
MDA-MB-435 = tested on: MDA-MB-435
Malme-3M = tested on: Malme-3M
NCI-H23 = tested on: NCI-H23
NCI-H522 = tested on: NCI-H522
OVCAR-8 = tested on: OVCAR-8
RXF 393 = tested on: RXF 393
SF-539 = tested on: SF-539
SN12C = tested on: SN12C
UACC-62 = tested on: UACC-62

Structure (SMILES) | GI50 (786-0) | GI50 (A549) | GI50 (HCC 2998) | GI50 (HCT-15) [µM] | GI50 (HL-60) | GI50 (HOP-62) | GI50 (HOP-92) | GI50 (IGROV-1) | GI50 (KM12) | GI50 (LOX IMVI) | GI50 (M14) | GI50 (MDA-MB-435) | GI50 (Malme-3M) | GI50 (NCI-H23) | GI50 (NCI-H522) | GI50 (OVCAR-8) | GI50 (RXF 393) | GI50 (SF-539) | GI50 (SN12C) | GI50 (UACC-62)
CCCCCCCCCCCCCC(=O)NO | 7.1 µM (inactive) | 9.91 µM (inactive) | 14.4 µM (inactive) | 3.72 | 1.17 µM (inactive) | 17.4 µM (inactive) | 15.8 µM (inactive) | 17.4 µM (inactive) | 9.42 µM (inactive) | 3.99 µM (inactive) | 15.8 µM (inactive) | 25.3 µM (inactive) | 32.1 µM (inactive) | 8.22 µM (inactive) | 1.01 µM (active) | 12.1 µM (inactive) | 5.75 µM (inactive) | 14.1 µM (inactive) | 8.55 µM (inactive) | 6.68 µM (inactive)
CC(=O)OCCN1c2ccccc2Sc2cnccc21 | > 10 µM (inactive) | > 10 µM (inactive) | > 10 µM (inactive) | > 10 | > 10 µM (inactive) | > 10 µM (inactive) | > 10 µM (inactive) | > 10 µM (inactive) | 0.067 µM (active) | > 10 µM (inactive) | > 10 µM (inactive) | > 10 µM (inactive) | > 10 µM (inactive) | > 10 µM (inactive) | > 10 µM (inactive) | > 10 µM (inactive) | > 10 µM (inactive) | > 10 µM (inactive) | > 10 µM (inactive) | > 10 µM (inactive)
CC1=NN(c2nc(N)nc(CBr)n2)C(C)(C)C1 | 0.692 µM (active) | 12.6 µM (inactive) | 16.1 µM (inactive) | 3.61 | 0.975 µM (active) | 19.7 µM (inactive) | 0.436 µM (active) | 1.49 µM (inactive) | 10.7 µM (inactive) | 0.708 µM (active) | 5.79 µM (inactive) | 11 µM (inactive) | 2.45 µM (inactive) | 9.86 µM (inactive) | 0.234 µM (active) | 5.45 µM (inactive) | 2.78 µM (inactive) | 2.3 µM (inactive) | 5.22 µM (inactive) | 7.28 µM (inactive)
O=C(CC(C(=O)c1cccs1)c1ccsc1)c1ccsc1 (stereo not given) | 46.2 µM (inactive) | 45.8 µM (inactive) | 34.1 µM (inactive) | 42.1 | 40.1 µM (inactive) | 56.9 µM (inactive) | 29.2 µM (inactive) | 54.1 µM (inactive) | 42.9 µM (inactive) | 22.8 µM (inactive) | 16.9 µM (inactive) | 20.3 µM (inactive) | 78.5 µM (inactive) | 53 µM (inactive) | 20.4 µM (inactive) | 39.4 µM (inactive) | 25.6 µM (inactive) | 27.5 µM (inactive) | 52 µM (inactive) | 14 µM (inactive)
CCOC(=O)c1c(N2CCOCC2)ncn(-c2cccc(Cl)c2)c1=O | > 100 µM (inactive) | > 100 µM (inactive) | > 100 µM (inactive) | > 100 | > 100 µM (inactive) | > 100 µM (inactive) | > 100 µM (inactive) | > 100 µM (inactive) | > 100 µM (inactive) | > 100 µM (inactive) | > 100 µM (inactive) | > 100 µM (inactive) | > 100 µM (inactive) | > 100 µM (inactive) | > 100 µM (inactive) | > 100 µM (inactive) | > 100 µM (inactive) | > 100 µM (inactive) | > 100 µM (inactive) | > 100 µM (inactive)
COc1cccc(C2CC(C)(N3CCCC3)Oc3cc4c(cc32)OCO4)c1O (stereo not given) | 32.8 µM (inactive) | 31.9 µM (inactive) | 23 µM (inactive) | 11.3 | 15.4 µM (inactive) | 27 µM (inactive) | 31.3 µM (inactive) | 26.2 µM (inactive) | 22 µM (inactive) | 28.8 µM (inactive) | 17.3 µM (inactive) | 4.39 µM (inactive) | 24.8 µM (inactive) | 27.4 µM (inactive) | 19.1 µM (inactive) | 30.2 µM (inactive) | 26.7 µM (inactive) | 19.4 µM (inactive) | 25.6 µM (inactive) | 22.1 µM (inactive)
COc1ccc(/C=N/N=C(\N)NO)c(O)c1 | > 10 µM (inactive) | > 10 µM (inactive) | > 10 µM (inactive) | 6.24 | 4.39 µM (inactive) | > 10 µM (inactive) | > 10 µM (inactive) | 8.77 µM (inactive) | 4.57 µM (inactive) | 3.27 µM (inactive) | 5.01 µM (inactive) | 2.09 µM (inactive) | 9.75 µM (inactive) | > 10 µM (inactive) | > 10 µM (inactive) | > 10 µM (inactive) | > 10 µM (inactive) | > 10 µM (inactive) | 8.53 µM (inactive) | 4.53 µM (inactive)
CC(C)/C(Cl)=N/OC(=O)Nc1ccc(Br)cc1 | 1.88 µM (inactive) | 18.2 µM (inactive) | 15.5 µM (inactive) | 2.12 | 2.58 µM (inactive) | 16.9 µM (inactive) | 1.77 µM (inactive) | 13 µM (inactive) | 12.9 µM (inactive) | 1.32 µM (inactive) | 2.78 µM (inactive) | 11 µM (inactive) | 1.69 µM (inactive) | 13.3 µM (inactive) | 1.52 µM (inactive) | 14.6 µM (inactive) | 10.2 µM (inactive) | 13.2 µM (inactive) | 2.16 µM (inactive) | 3.82 µM (inactive)
COC(=O)C(Cc1ccc([N+](=O)[O-])cc1)NC(=O)C(CC(=O)OC(C)(C)C)NC(=O)OC(C)(C)C (stereo not given) (Boc-Asp(OtBu)-[Phe(4-NO2)]-OMe; configuration not given here) | > 100 µM (inactive) | > 100 µM (inactive) | 35.2 µM (inactive) | > 100 | > 100 µM (inactive) | > 100 µM (inactive) | > 100 µM (inactive) | > 100 µM (inactive) | > 100 µM (inactive) | 20.9 µM (inactive) | 29.4 µM (inactive) | > 100 µM (inactive) | > 100 µM (inactive) | > 100 µM (inactive) | 63.5 µM (inactive) | 38.1 µM (inactive) | > 100 µM (inactive) | > 100 µM (inactive) | > 100 µM (inactive) | > 100 µM (inactive)
CCCCCCCCCCCCCC(=O)O[C@H]1CC[C@H](NC(=O)[C@H](OC)[C@H](O)[C@@H](O)[C@H](O)/C=C/C(C)C)C(=O)NC1 [BENGAMIDE A] | 0.00512 µM (active) | 0.00512 µM (active) | 0.117 µM (active) | 0.299 | 0.00512 µM (active) | 0.235 µM (active) | 0.0204 µM (active) | 0.00708 µM (active) | 0.00512 µM (active) | 0.00512 µM (active) | 0.00601 µM (active) | 0.204 µM (active) | 0.0148 µM (active) | 0.0113 µM (active) | 0.011 µM (active) | 0.00828 µM (active) | 0.175 µM (active) | 0.0197 µM (active) | 0.00542 µM (active) | 0.00512 µM (active)
